Measurements as given in the Kinase Knowledgebase extract (Sharma et al. 2016).

Biological target: CDK2 (human) (UniProt P24941)
Assay: Enzyme Assay

Ki [nM]	Compound
< 1000	O=c1[nH][nH]c2cc(Cl)c(-c3nc(Nc4n[nH]c5ccc(F)cc45)c4cnoc4n3)cc12
< 1000	N#Cc1cc(Nc2n[nH]c3ccccc23)nc(-c2ccc3[nH][nH]c(=O)c3c2C(F)(F)F)n1
< 1000	O=c1[nH][nH]c2cc(COC3CCCC3Nc3cc(C4CC4)[nH]n3)ccc12 (configuration not stated)
< 1000	Cc1cc(Nc2ccnc(Nc3ccc4c(=O)[nH][nH]c4c3)c2)n[nH]1
< 1000	O=c1[nH][nH]c2ccc(-c3nc4c(c(Nc5n[nH]c(-c6cccnc6)n5)n3)CCCC4)c(C(F)(F)F)c12
< 1000	Cn1cnc(NC(CCNc2ccc3c(=O)[nH][nH]c3c2)c2ccccc2)c1 (configuration not stated)
< 1000	O=c1[nH][nH]c2ccc(OCc3nc(Nc4cc(C5CC5)[nH]n4)c4ccccc4n3)cc12
< 1000	COCc1cc(Nc2n[nH]c3ccccc23)nc(-c2ccc3[nH][nH]c(=O)c3c2)n1
< 1000	Cc1cc(Nc2nc(Nc3ccc4c(=O)[nH][nH]c4c3)nc3ccc(-c4ccccc4Cl)cc23)n[nH]1
< 1000	Cc1cc(Nc2cc(-c3ccco3)[nH]n2)nc(Nc2ccc3c(=O)[nH][nH]c3c2)n1
< 1000	O=c1[nH][nH]c2cc(OCCC(Nc3ccccn3)c3ccccc3)ccc12 (configuration not stated)
< 1000	O=c1[nH][nH]c2cc(NC(CCNc3cc(C4CC4)[nH]n3)Cc3ccccc3)ccc12 (configuration not stated)
< 1000	Cc1cc(-c2cc3c(=O)[nH][nH]c3cc2Cl)nc(Nc2n[nH]c3ccccc23)c1C
< 1000	Cc1nc(Oc2ccc3c(=O)[nH][nH]c3c2)nc(Nc2cc(C3CC3)[nH]n2)c1C
< 1000	O=c1[nH][nH]c2cc(C(F)(F)F)c(-c3cc(Nc4n[nH]c5ccccc45)c4cccnc4n3)cc12
< 1000	CC(C)NC(=O)c1cc(Nc2nc(-c3ccc4[nH][nH]c(=O)c4c3)nc3ccccc23)n[nH]1
< 1000	O=c1[nH][nH]c2cc(Sc3nc(Nc4cc(C5CC5)[nH]n4)c4ccccc4n3)ccc12
< 1000	O=C(CC(=O)Nc1ccccn1)Nc1ccc2c(=O)[nH][nH]c2c1
< 1000	COc1cc(-c2cc(Nc3cc(C)[nH]n3)nc(Nc3ccc4c(=O)[nH][nH]c4c3)n2)cc(OC)c1OC
< 1000	O=c1[nH][nH]c2cc(Cc3nc(Nc4cc(C5CC5)[nH]n4)c4ccccc4n3)ccc12
< 1000	O=c1[nH][nH]c2cc(Nc3ncc(N4CCOCC4)c(Nc4cc(C5CC5)[nH]n4)n3)ccc12

Continued, molecule first:

Compound	Ki [nM]
O=c1[nH][nH]c2cc(Sc3cc(Nc4cc(C5CC5)[nH]n4)ccn3)ccc12	< 1000
Cc1cnc(NC2CCC(Nc3ccc4c(=O)[nH][nH]c4c3)C2)s1 (configuration not stated)	< 1000
O=c1[nH][nH]c2cc(CCCONc3cc(C4CC4)[nH]n3)ccc12	< 1000
O=c1[nH][nH]c2cc(NC(CCNc3ccccn3)Cc3ccccc3)ccc12 (configuration not stated)	< 1000
O=c1[nH][nH]c2cc(OC3CCCC(Nc4nccnn4)C3)ccc12 (configuration not stated)	< 1000
O=c1[nH][nH]c2cc(Nc3ccc([N+](=O)[O-])c(Nc4cc(C5CC5)[nH]n4)n3)ccc12	< 1000
O=c1[nH][nH]c2cc(SCC3CCCC3Nc3ccccn3)ccc12 (configuration not stated)	< 1000
O=c1[nH][nH]c2cc(NCCC(Nc3nccnn3)c3ccccc3)ccc12 (configuration not stated)	< 1000
CN1CCN(C(=O)OCc2ccccc2)CC1c1cc(Nc2n[nH]c3ccccc23)nc(-c2ccc3[nH][nH]c(=O)c3c2C(F)(F)F)n1 (configuration not stated)	< 1000
Cc1cnc(NC(=O)CCCc2ccc3c(=O)[nH][nH]c3c2)s1	< 1000
Cc1cc(Nc2nc(-c3c(C)cc4[nH][nH]c(=O)c4c3C)nc3ccccc23)n[nH]1	< 1000
O=c1[nH][nH]c2cc(OC3CCC(Nc4cc(C5CC5)[nH]n4)C3)ccc12 (configuration not stated)	< 1000
Cn1cnc(NC(=O)CCCc2ccc3c(=O)[nH][nH]c3c2)c1	< 1000
COCc1cc(Nc2cc(C)[nH]n2)nc(COc2ccc3[nH][nH]c(=O)c3c2)n1	< 1000
O=c1[nH][nH]c2cc(C(F)(F)F)c(-c3cc(Nc4n[nH]c(C5CC5)n4)c4ccccc4n3)cc12	< 1000
O=c1[nH][nH]c2ccc(-c3cnnc(Nc4cc(C5CCCC5)[nH]n4)n3)cc12	< 1000
O=c1[nH][nH]c2ccc(C3COCC(Nc4cc(C5CC5)[nH]n4)C3)cc12 (configuration not stated)	< 1000
Cc1cc(Nc2cc(-c3c(C)cccc3C)nc(Sc3ccc4c(=O)[nH][nH]c4c3)n2)n[nH]1	< 1000
CN(C)CCNC(=O)c1cc(Nc2cc(C3CC3)[nH]n2)nc(Sc2ccc3c(=O)[nH][nH]c3c2)n1	< 1000
Cc1cnc(NCCC(=O)Cc2ccc3c(=O)[nH][nH]c3c2)s1	< 1000
Cc1cc(Nc2cc(C3CC3)[nH]n2)nc(Oc2ccc3c(=O)[nH][nH]c3c2)n1	< 1000
O=c1[nH][nH]c2cc(CCCCNc3nccnn3)ccc12	< 1000
O=c1[nH][nH]c2cc(C3CC3)c(-c3nc(Nc4n[nH]c5c(F)cc(F)cc45)c4ccccc4n3)cc12	< 1000

Compound	Ki [nM]
O=c1[nH][nH]c2cc(C(F)(F)F)c(-c3nc(Nc4n[nH]c5ccccc45)nc(N4CCSCC4)n3)cc12	< 1000
Cc1cc(Nc2nc(Oc3ccc4c(=O)[nH][nH]c4c3)cc3ccccc23)n[nH]1	< 1000
CCc1cc(Nc2nc(-c3ccncc3)nc(-c3ccc4[nH][nH]c(=O)c4c3)n2)n[nH]1	< 1000
O=c1[nH][nH]c2cc(OC3CCC(Nc4ccccn4)C3)ccc12 (configuration not stated)	< 1000
Cc1cc(Nc2nc(-c3cc4c(=O)[nH][nH]c4cc3Cl)cc3ccccc23)n[nH]1	< 1000
CCc1c(-c2nc(Nc3cc(C)[nH]n3)c3ccccc3n2)ccc2[nH][nH]c(=O)c12	< 1000
O=c1[nH][nH]c2cc(Nc3nc(Nc4cc(-c5ccco5)[nH]n4)cc(-c4ccccc4)n3)ccc12	< 1000
O=c1[nH][nH]c2cc(OCC3CCCC3Nc3cc(C4CC4)[nH]n3)ccc12 (configuration not stated)	< 1000
O=c1[nH][nH]c2cc(SC(CCNc3nccnn3)Cc3ccccc3)ccc12 (configuration not stated)	< 1000
Cc1cc(Nc2cc(C(=O)N3CCN(C)CC3)nc(Sc3ccc4c(=O)[nH][nH]c4c3)n2)n[nH]1	< 1000
Cc1cc(Nc2cc(-c3ccccc3C)nc(Oc3ccc4c(=O)[nH][nH]c4c3)n2)n[nH]1	< 1000
CC(=O)NC1CCC(c2nc(-c3cc4c(=O)[nH][nH]c4cc3C(F)(F)F)nc(Nc3n[nH]c4ccccc34)c2C)CC1 (configuration not stated)	< 1000
Cn1cnc(NC2COCC(SCc3ccc4c(=O)[nH][nH]c4c3)C2)c1 (configuration not stated)	< 1000
Cc1cc(Nc2cc(-c3cc4c(=O)[nH][nH]c4cc3C(F)(F)F)nc3cnccc23)n[nH]1	< 1000
Cn1cnc(NC2CCC(Nc3ccc4c(=O)[nH][nH]c4c3)C2)c1 (configuration not stated)	< 1000
Cc1cc(Nc2cc(-c3ccc(OCCCN(C)C)cc3)nc(Sc3ccc4c(=O)[nH][nH]c4c3)n2)n[nH]1	< 1000
O=c1[nH][nH]c2ccc(-c3nc(Nc4cc(C5CC5)[nH]n4)nc(-c4ccccc4)n3)cc12	< 1000
O=c1[nH][nH]c2ccc(-c3nc4c(c(Nc5n[nH]c6ccccc56)n3)N(Cc3ccccc3)CCC4)c(C(F)(F)F)c12	< 1000
Cc1cccc(-c2cc(Nc3cc(C)[nH]n3)nc(Oc3ccc4c(=O)[nH][nH]c4c3)n2)c1	< 1000
O=C1CCCN(c2cc(-c3cc4c(=O)[nH][nH]c4cc3Cl)nc(Nc3n[nH]c4ccc(F)cc34)n2)C1	< 1000
O=c1[nH][nH]c2cc(Oc3nccc(Nc4cc(C5CC5)[nH]n4)n3)ccc12	< 1000
Cn1cnc(NCCC(Cc2ccccc2)Nc2ccc3c(=O)[nH][nH]c3c2)c1 (configuration not stated)	< 1000
COCCNC(=O)c1cc(Nc2cc(C)[nH]n2)nc(Sc2ccc3c(=O)[nH][nH]c3c2)n1	< 1000
